Data as given in US5480885A, “Ergoline derivatives of 1-propinylamine, a process for the manufacture thereof and the use thereof for medicaments” (priority 1991, dated 1996).
Entries after “also recorded” stand apart in the source; their conditions may differ. Read-outs that look alike come from different tables or passages of the source.

What was measured:
[1] = biological target: T1, isolated rabbit thoracic aorta (serotonin) (Oryctolagus cuniculus, UniProt G1SYA7)
T1 construct: isolated rabbit thoracic aorta; from tissue; host or cells: isolated rabbit thoracic aorta

[2] = system: isolated rabbit thoracic aorta (noradrenaline); assay: inhibition of the constrictive activity of noradrenaline on the isolated rabbit thoracic aorta
[3] = system: isolated rat uterus (serotonin); assay: inhibition of serotonin-induced contractions of the isolated rat uterus; details: serotonin-induced contractions (serotonin 2.47×10^-8 M where printed)
isolated rat uterus = assay: uterotonic activity (isolated rat uterus); details: in words
[4] = blood pressure and heart rate in pentobarbital-anesthetized normotensive rats; type: in vivo, rat; details: rat, in vivo, iv; normotensive rats, pentobarbital-induced anesthesia; read-out: ED50, decrease of the mean arterial blood pressure
[5] = system: pentobarbital-anesthetized normotensive rats; assay: as above; type: in vivo, rat; details: 450 μg/kg i.v.; for effect on carotid artery pressure / effect on heart rate: in words
pithed rats = assay: vasoconstriction / diastolic pressure in pithed rats (Gillespie); type: in vivo, rat; details: 450 μg/kg i.v.; for peripheral vasoconstriction: in words
5-HT2 receptors = biological target: T2, 5-HT2 receptors (Mus musculus, UniProt P35363); assay: inhibition of the head twitch response after 5-HTP/carbidopa; type: in vivo, mice; details: ip; for ED50: mice, read-out: ID50, inhibition of head twitch response
T2 construct: The head twitch model in mice; from tissue; host or cells: living mice (central nervous system)
Procedure: The substance was injected 15 minutes prior to DL-5-HTP. The head twitch was recorded from 30 to 35 minutes after the DL-5-HTP injection (modified method according to Handley and Singh, Br. J. Pharmacol. 86, 297 (1985)).
The compound was injected 15 minutes prior to L-5-HTP (modified method according to Handley and Singh, Br. J. Pharmacol. 86, 297 (1985)).
The head twitch model in mice represents an experimental model for determining the hallucinogenic action of a compound (the method was described by Handley and Singh, Br.J.Pharmacol., 86, 297-303, 1985). It is believed that the response is conveyed via the 5-HT2 receptors.

[6] = biological target: T3, 5-HT1A serotoninergic receptor (Homo sapiens, UniProt P08908); assay: binding at [^3 H] 8-OH-DPAT binding site; details: for affinity to 5-HT1A receptor: [^3 H] 8-OH-DPAT, in words
T3 sequence (P08908 1-422): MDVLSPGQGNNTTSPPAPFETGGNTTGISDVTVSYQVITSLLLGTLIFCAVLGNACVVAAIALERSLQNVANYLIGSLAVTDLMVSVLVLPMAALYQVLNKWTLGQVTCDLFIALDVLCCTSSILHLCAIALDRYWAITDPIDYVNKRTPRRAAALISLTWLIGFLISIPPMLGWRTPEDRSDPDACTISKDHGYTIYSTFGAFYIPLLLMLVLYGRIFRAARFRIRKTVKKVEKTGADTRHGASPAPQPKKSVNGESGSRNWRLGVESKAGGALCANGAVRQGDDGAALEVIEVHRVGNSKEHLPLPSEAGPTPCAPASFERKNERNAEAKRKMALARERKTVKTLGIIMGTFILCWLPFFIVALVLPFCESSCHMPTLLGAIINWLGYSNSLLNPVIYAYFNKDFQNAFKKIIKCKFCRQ
Text: (§1) Binding affinities of the compounds of Examples 1

[7] = biological target: T3, 5-HT1A serotoninergic receptor; assay: functional test, 5-HT1A serotoninergic receptor; details: in words
sigma receptor [8] = assay: binding at [^3 H] DTG binding site; details: in words
sigma receptor [9] = assay: functional test, sigma receptor; details: in words
5-HT2 receptor = 5-HT2 receptor (Homo sapiens, UniProt P28223); assay: biochemical; type: binding; details: for Ki: 5-HT2, [^3 H]Ketanserin, read-out: Ki; for affinity for 5-HT2 receptors: in words
Text: as §1

D2 receptor = D2 receptor (Homo sapiens, UniProt P14416); assay: binding, [^3 H]Raclopride; details: for Ki: D2, [^3 H]Raclopride; for affinity for D2 receptors: in words
Text: as §1

D1 receptor = D1 receptor (Homo sapiens, UniProt P21728); assay: binding, [^3 H]SCH23390
Text: (§2) Binding affinities of the compounds of Examples 5

α1 receptor = assay: binding, [^3 H]Prazosin
Text: as §2

D2 receptors [10] = biological target: T4, D2 receptors (Rattus norvegicus, UniProt P61169); assay: apomorphine-induced locomotion; type: in vivo; details: sc, -45 min., apomorphine 0.4 mg/kg s.c., rats, read-out: ID50, apomorphine-induced locomotion
T4 construct: from tissue; host or cells: living rats (central nervous system)

D2 receptors [11] = biological target: T5, D2 receptors (Mus musculus, UniProt P61168); assay: apomorphine-induced climbing in mice; type: in vivo; details: ip, -30 min., apomorphine 1.5 mg/kg s.c., read-out: ID50, climbing behavior
T5 construct: from tissue; host or cells: living mice (central nervous system)
Procedure: The application of apomorphine in a dose of 1.5 mg/kg s.c. caused a characteristic climbing behavior in mice.

catalepsy in rats = type: in vivo, rat; details: rat, in vivo, sc; rats
Procedure: (§3) The s.c. application of the compounds of Example 5 (0.5 to 16 mg/kg) and of Example 8 (0.125 to 4 mg/kg), respectively, caused catalepsy in rats (the method was described by Morelli and Chiara, Europ. J. Pharmacol. 117, 179-185, 1985).

rats = assay: catalepsy in rats; type: in vivo, rat; details: in words
Procedure: as §3

α1 receptors = assay: noradrenaline-induced lethality in rats; type: in vivo, rat; details: s.c.
[12] = spontaneous motor activity in mice; type: in vivo; details: mouse, in vivo, ip; mice; read-out: ID50, inhibition of spontaneous motor activity
mice = assay: spontaneous motor activity in mice; type: in vivo; details: two models (motor activity and pentobarbital anesthesia); vs haloperidol; in words
[13] = prolongation of pentobarbital-induced anesthesia in mice; details: mouse, in vivo, ip
[14] = overall antipsychotic action and side-effect profile (summary statements); type: in vivo; details: in words
[15] = system: isolated rabbit thoracic aorta; assay: constriction of the isolated rabbit thoracic aorta
pupil = assay: dilatation of the pupil in mice (Pulewka); type: in vivo; details: in words
5-HT1A receptors = assay: spontaneous tail-flicks in rats; type: in vivo, rat; details: in words

Sequence of 5-HT2 receptor (P28223 whole entry): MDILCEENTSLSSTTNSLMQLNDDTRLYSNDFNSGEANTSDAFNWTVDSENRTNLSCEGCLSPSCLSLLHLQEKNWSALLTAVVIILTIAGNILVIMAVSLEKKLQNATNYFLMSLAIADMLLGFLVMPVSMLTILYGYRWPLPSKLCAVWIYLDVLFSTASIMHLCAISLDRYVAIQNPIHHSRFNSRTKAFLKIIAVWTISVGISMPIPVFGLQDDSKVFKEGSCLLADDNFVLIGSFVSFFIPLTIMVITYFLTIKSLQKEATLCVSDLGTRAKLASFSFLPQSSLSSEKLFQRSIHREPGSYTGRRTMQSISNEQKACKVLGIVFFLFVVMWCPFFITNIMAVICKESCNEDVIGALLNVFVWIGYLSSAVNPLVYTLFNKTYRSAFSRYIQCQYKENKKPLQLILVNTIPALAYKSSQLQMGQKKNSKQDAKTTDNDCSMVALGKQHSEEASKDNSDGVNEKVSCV
Sequence of D2 receptor (P14416 whole entry): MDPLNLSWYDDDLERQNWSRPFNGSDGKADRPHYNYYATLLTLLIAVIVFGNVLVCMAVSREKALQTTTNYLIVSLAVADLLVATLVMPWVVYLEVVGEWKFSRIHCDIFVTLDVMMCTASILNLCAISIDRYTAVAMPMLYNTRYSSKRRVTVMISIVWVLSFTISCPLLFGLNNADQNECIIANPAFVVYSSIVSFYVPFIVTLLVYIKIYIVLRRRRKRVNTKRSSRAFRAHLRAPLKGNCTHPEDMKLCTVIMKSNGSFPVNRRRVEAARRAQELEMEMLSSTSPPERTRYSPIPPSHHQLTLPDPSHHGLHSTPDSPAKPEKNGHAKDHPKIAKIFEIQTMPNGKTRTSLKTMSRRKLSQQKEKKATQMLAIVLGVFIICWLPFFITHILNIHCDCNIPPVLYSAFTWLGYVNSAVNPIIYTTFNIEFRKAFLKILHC
T2 sequence (P35363 whole entry): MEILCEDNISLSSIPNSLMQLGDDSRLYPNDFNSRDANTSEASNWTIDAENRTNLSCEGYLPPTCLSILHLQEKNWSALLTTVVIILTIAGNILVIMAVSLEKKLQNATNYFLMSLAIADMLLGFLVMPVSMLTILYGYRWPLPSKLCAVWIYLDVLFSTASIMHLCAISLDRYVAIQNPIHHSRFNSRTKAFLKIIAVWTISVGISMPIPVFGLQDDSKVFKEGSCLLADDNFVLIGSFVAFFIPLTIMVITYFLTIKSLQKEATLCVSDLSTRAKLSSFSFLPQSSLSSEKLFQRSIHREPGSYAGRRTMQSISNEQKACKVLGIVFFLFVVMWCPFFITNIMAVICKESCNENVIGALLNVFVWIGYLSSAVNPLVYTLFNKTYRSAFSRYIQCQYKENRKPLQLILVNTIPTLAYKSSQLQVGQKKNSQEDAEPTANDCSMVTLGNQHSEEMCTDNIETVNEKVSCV
Sequence of D1 receptor (P21728 whole entry): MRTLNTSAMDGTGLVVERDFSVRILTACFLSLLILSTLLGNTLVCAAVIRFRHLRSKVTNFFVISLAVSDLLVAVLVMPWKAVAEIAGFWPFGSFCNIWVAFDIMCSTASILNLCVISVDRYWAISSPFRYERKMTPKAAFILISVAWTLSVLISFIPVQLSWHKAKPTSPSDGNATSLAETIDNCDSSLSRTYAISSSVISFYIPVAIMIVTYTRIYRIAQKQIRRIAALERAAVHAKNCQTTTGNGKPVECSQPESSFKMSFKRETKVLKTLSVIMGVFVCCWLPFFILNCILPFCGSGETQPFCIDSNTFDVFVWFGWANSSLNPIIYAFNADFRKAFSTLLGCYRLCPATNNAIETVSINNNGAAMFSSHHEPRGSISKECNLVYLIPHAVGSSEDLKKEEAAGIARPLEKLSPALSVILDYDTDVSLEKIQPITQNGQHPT
T1 sequence (G1SYA7 entry or part of it): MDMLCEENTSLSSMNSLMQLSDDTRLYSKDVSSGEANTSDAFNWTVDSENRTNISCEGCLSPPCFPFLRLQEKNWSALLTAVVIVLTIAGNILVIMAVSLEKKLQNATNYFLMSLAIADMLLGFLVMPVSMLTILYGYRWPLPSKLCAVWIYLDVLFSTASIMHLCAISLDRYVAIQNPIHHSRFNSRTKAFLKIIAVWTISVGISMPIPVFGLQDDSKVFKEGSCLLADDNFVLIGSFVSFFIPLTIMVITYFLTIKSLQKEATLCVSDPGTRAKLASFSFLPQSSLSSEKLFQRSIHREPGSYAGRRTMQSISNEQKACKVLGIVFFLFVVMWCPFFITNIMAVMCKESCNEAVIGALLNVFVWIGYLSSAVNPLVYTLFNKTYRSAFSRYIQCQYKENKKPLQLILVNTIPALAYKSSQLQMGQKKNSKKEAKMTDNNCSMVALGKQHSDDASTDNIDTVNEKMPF
T5 sequence (P61168 whole entry): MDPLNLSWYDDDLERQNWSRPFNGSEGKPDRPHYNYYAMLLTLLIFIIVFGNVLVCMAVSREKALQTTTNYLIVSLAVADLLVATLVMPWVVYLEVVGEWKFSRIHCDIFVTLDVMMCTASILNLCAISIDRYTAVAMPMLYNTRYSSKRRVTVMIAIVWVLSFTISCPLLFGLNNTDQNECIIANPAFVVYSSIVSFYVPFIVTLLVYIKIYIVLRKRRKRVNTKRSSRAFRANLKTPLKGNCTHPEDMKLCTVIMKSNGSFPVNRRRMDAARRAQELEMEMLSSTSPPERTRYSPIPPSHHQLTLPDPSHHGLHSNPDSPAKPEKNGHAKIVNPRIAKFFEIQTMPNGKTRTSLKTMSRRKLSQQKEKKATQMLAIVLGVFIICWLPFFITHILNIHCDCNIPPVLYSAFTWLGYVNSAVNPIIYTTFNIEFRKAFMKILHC
T4 sequence (P61169 whole entry): as the sequence (P61168 whole entry) above, with P29A counted along it

C#CCN(C)C(=O)[C@@H]1C=C2c3cccc4[nH]c(Br)c(c34)C[C@H]2N(C)C1 [Example 5, 2-Bromo-9,10-didehydro-N-methyl-N-(2'-propinyl)-6-methylergoline-8β-carboxamide]
mode of inhibition of serotonin constriction ([1]; in words): competitively inhibited | Kb ([1]; vs serotonin, read-out: pA2 (converted)): 11.7 nM | mode of inhibition of noradrenaline constriction ([2]; in words): competitively inhibited | pA2 ([2]; vs noradrenaline): 6.45 | IC50 [3]: 12.5 nM | uterotonic activity (isolated rat uterus): no uterotonic activity | ED50 [4]: 0.42 mg/kg | effect on carotid artery pressure [5]: small, yet statistically significant decrease in carotid artery pressure and heart rate | effect on heart rate [5]: small, yet statistically significant decrease in carotid artery pressure and heart rate | maximum reduction in carotid artery pressure ([5]; vs initial level): 10% | reduction in heart rate ([5]; vs initial level): 10% | peripheral vasoconstriction (pithed rats): slowly developing peripheric vasoconstriction | peripheric vasoconstriction, increase (pithed rats; vs control): 20% | ED50 (5-HT2 receptors; L-5-HTP/carbidopa, 15 minutes prior): 3.8 mg/kg | affinity to 5-HT1A receptor [6]: possessed affinity | functional activity at 5-HT1A [7]: did not indicate any activity | affinity to sigma receptor (sigma receptor [8]): possessed affinity | functional activity at sigma receptor (sigma receptor [9]): indicated an antagonistic activity | Ki (5-HT2 receptor): 18 nM | affinity for 5-HT2 receptors (5-HT2 receptor): high affinity | Ki (D2 receptor): 2.3 nM | affinity for D2 receptors (D2 receptor): high affinity | Ki (D1 receptor; D1, [^3 H]SCH23390): 97 nM | affinity for D1 receptors (D1 receptor; in words): lower | affinity for α1 receptors (α1 receptor; in words): lower | Ki (α1 receptor; α1, [^3 H]Prazosin): 29 nM | ED50 (D2 receptors [10]): 0.66 mg/kg | ED50 (D2 receptors [11]): 6.89 mg/kg | ED50 (catalepsy in rats): 1.4 mg/kg | cataleptic action compared with haloperidole (rats): lesser than the action caused by the typical antipsychotic haloperidole | ID50, noradrenaline-induced lethality (α1 receptors): 5.11 mg/kg | ED50 [12]: 12.5 mg/kg | depressant action on the level of CNS (mice): several times lower depressant action on the level of CNS if compared with haloperidol | ED50 [13]: 9.2 mg/kg | antipsychotic action [14]: strongest antipsychotic action

C#CCNC(=O)[C@@H]1C=C2c3cccc4[nH]cc(c34)C[C@H]2N(C)C1 [Example 1, 9,10-Didehydro-N-(2'-propinyl)-6-methylergoline-8β-carboxamide]
receptors responsible for vasoconstriction ([15]; 1 μM): the result of the activation of α1 -adrenergic receptors | constriction of the isolated rabbit thoracic aorta ([15]; in words): caused a constriction of the isolated rabbit thoracic aorta | intrinsic activity, aorta constriction ([15]; in words, vs serotonin): comparable to that of serotonin | uterotonic activity (isolated rat uterus): no uterotonic activity | exitus [5]: followed by exitus | time to onset of reduction in pressure and heart rate [5]: Approximately 2 minutes | effect on carotid artery pressure [5]: a strong reduction in the carotid artery pressure and heart rate | effect on heart rate [5]: a strong reduction in the carotid artery pressure and heart rate | peripheral vasoconstriction (pithed rats): transient, yet very strong peripheral vasoconstriction | inhibition at 4 mg/kg (5-HT2 receptors; 4 mg/kg i.p., D,L-5-hydroxytryptophan/carbidopa, 15 minutes prior): 62% | ED50 (5-HT2 receptors; 5-hydroxytryptophan/carbidopa): 0.74 mg/kg | dilatation of the pupil (pupil; 5 mg/kg i.p.): very strong dilatation of the pupil | time course of effect (pupil; 5 mg/kg i.p.): After 60 minutes the effect was quickly reduced | behavioural effects in mice (pupil): The mice became agitated, piloerection, tremor and excitation took place | Ki ([6]; 5-HT1A, [^3 H]8-OH-DPAT): 1 nM | affinity to 5-HT1A receptor [6]: high affinity; also recorded: possessed affinity | functional activity at 5-HT1A [7]: indicated an agonistic activity | affinity to sigma receptor (sigma receptor [8]): possessed affinity | functional activity at sigma receptor (sigma receptor [9]): indicated an antagonistic activity | Ki (5-HT2 receptor): 64 nM | affinity for 5-HT2 receptors (5-HT2 receptor): high affinity | Ki (D2 receptor): 151 nM | affinity for D2 receptors (D2 receptor): lower affinity | spontaneous tail-flick (5-HT1A receptors; 0.08 to 0.63 mg/kg s.c. (Example 1), 5.0 mg/kg s.c. (Example 2)): provoked a dose- and time-dependent spontaneous tail-flick in rats | tail-flick effect compared with 8-OH-DPAT (5-HT1A receptors; s.c.): very similar to that caused by the selective 5-HT1A agonist 8-OH-DPAT

O=C(CCCN1CCC(O)(c2ccc(Cl)cc2)CC1)c1ccc(F)cc1 [haloperidole, reference compound]
ED50 (catalepsy in rats): 0.019 mg/kg
